The first experiment relates to ADP-Induced Platelet Aggregation. In words: Inhibition of ADP-induced platelet aggregation in rabbit platelet-rich plasma (microplate method). The settings on record: Oryctolagus cuniculus, Platelet; 30 μM, rabbit PRP, inducer ADP; read-out: Inhibition rate of target compounds on platelet aggregation at 30 μM. Type of experiment: cell-based. How it is done: Example 62 Investigation on Inhibition of ADP-Induced Platelet Aggregation in Rabbit
A blood sample was collected from ear vein of a healthy male rabbit, added with 3.8% sodium citrate for anticoagulation and then centrifuged at 800 r/min for 10 min to prepare platelet-rich plasma (PRP) and at 3,000 r/min for 10 min to prepare platelet-poor plasma (PPP). The investigation on the plasma should be performed within 0.5-3 h after the preparation.
2. Determination of Platelet Aggregation by Microplate Method
The drugs to be tested were weighed and added with an appropriate amount of DMSO to prepare a series of 10 mM stock solutions, which were respectively diluted to prepare 10× stock solutions with normal saline for further use.
Several wells of a microplate were selected as test wells, which were added with 135 μL of PRP and then respectively added with 15 μL of the 10× stock solutions. A well in which 135 μL of PRP and 15 μL of normal saline were added was used as the vehicle control, and a well in which 135 μL of PPP and 15 μL of normal saline were added was used as the blank control. Duplicate wells were set for each test well. The plate was shaken, incubated at 37° C. for 5 min, and then measured for A0 at 655 nm. Subsequently, the microplate was added with 15 μL of an inducer […] (ADP) working solution (25 μmol/L) in each well, incubated at 37° C. under shaking and measured at 655 nm for A1, where the incubation time was determined according to the time in the pre-experiment when the maximum aggregation appeared. The platelet aggregation rate (AR) and platelet aggregation inhibition rate (AIR) were calculated according to the following formulas:
AR=(1−ARtest sample/ARcontrol)
Take `CCOC(=O)c1c(C)nc(-c2ccccc2)n1OC` [LY-25, ethyl 4-methyl-2-phenyl-1-methoxy-1H-imidazole-5-carboxylate]: the inhibition at 30 µM worked out at 24.1%.
The same measure, in the same setting: the same measure for `CCOC(=O)c1c(C)nc(-c2cccc(C#N)c2)n1OCC(N)=O` [LY-26h, ethyl 1-(2-amino-2-oxoethoxy)-2-(3-cyanophenyl)-4-methyl-1H-imidazole-5-carboxylate]: 18.9%; for `CCOC(=O)c1c(C)nc(-c2cccc(C#N)c2)n1OCCC(=O)O` [LY-26i, 3-{[2-(3-cyanophenyl)-5-(ethoxycarbonyl)-4-methyl-1H-imidazol-1-yl]oxy}propionic acid]: 24.4%; for `CCOC(=O)c1c(C)nc(-c2cccc(C#N)c2)n1OCc1cccc(C#N)c1` [LY-26x, ethyl 1-[(3-cyanobenzyl)oxy]-2-(3-cyanophenyl)-4-methyl-1H-imidazole-5-carboxylate]: 3.21%.

Still in this experiment, the particulars now being: Oryctolagus cuniculus, Platelet; rabbit PRP, inducer ADP, absorbance 655 nm; read-out: IC50 (Mean ± SE), ADP-induced platelet aggregation.
Consider `CCOC(=O)c1c(C)nc(-c2ccc(OCc3ccccc3)c(C#N)c2)n1O` [LY-7b, ethyl 2-(3-cyano-4-benzyloxy)phenyl-1-hydroxy-4-methyl-1H-imidazole-5-carboxylate], for which the IC50 is 19 ± 0.317 µM.
On to `CCOC(=O)c1c(C)nc(-c2ccc(OCC(C)C)c(C#N)c2)n1OC(C)=O` [LY-8a, ethyl 1-acetoxy-2-(3-cyano-4-isobutoxyphenyl)-4-methyl-1H-imidazole-5-carboxylate], for which the IC50 stood at 5.214 ± 0.0152 µM.
In the case of `CCOC(=O)c1c(C)nc(-c2ccc(O)c(C#N)c2)n1O` [LY-8b, ethyl 2-(3-cyano-4-hydroxyphenyl)-1-hydroxy-4-methyl-1H-imidazole-5-carboxylate], the IC50 was 18.3 ± 1.03 µM.
The same measure, in the same setting: in the case of `CCOC(=O)c1c(C)nc(-c2cccc(C#N)c2)n1O` [LY-10, ethyl 2-(3-cyanophenyl)-1-hydroxy-4-methyl-1H-imidazole-5-carboxylate] it was 17.6 ± 0.952 µM.
Same read-out and setting: the same measure for `Cc1nc(-c2cccc(C#N)c2)n(O)c1C(=O)O` [LY-11, 2-(3-cyanophenyl)-1-hydroxy-4-methyl-1H-imidazole-5-carboxylic acid]: 7.865 ± 0.0365 µM.
On the same count and under the same terms, in the case of `CCOC(=O)c1c(C)nc(-c2cccc(-c3nnn[nH]3)c2)n1O` [LY-13, ethyl 2-[3-(1H-tetrazol-5-yl)phenyl]-1-hydroxy-4-methyl-1H-imidazole-5-carboxylate] it was 21.9 ± 0.865 µM; in that of `CCOC(=O)c1c(C)nc(-c2cccc(-c3noc(=O)[nH]3)c2)n1O` [LY-15, ethyl 1-hydroxy-4-methyl-2-[3-(5-oxo-4,5-dihydro-1,2,4-oxadiazol-3-yl)phenyl]-1H-imidazole-5-carboxylate], 22.1 ± 0.299 µM.
As for `CCOC(=O)c1c(-c2ccccc2)nc(-c2cccc(C#N)c2)n1O` [LY-16, ethyl 2-(3-cyanophenyl)-1-hydroxy-4-phenyl-1H-imidazole-5-carboxylate], the IC50 came to 19.87 ± 0.126 µM.
Regarding `CCOC(=O)c1c(C)nc(-c2ccccc2C#N)n1OC` [LY-19, ethyl 4-methyl-2-(2-cyanophenyl)-1-methoxy-1H-imidazole-5-carboxylate], the half-inhibitory concentration (IC50) is 14.86 ± 0.0568 µM.
In the case of `CCOC(=O)c1c(C)nc(-c2ccc(C#N)cc2)n1OC` [LY-22, ethyl 4-methyl-2-(4-cyanophenyl)-1-methoxy-1H-imidazole-5-carboxylate], the IC50 came out at 13.4 ± 1.03 µM.
Consider `CCOC(=O)c1c(C)nc(-c2cccc(C#N)c2)n1OC` [LY-26a, ethyl 2-(3-cyanophenyl)-1-methoxy-4-methyl-1H-imidazole-5-carboxylate], for which the concentration for half-maximal inhibition (IC50) worked out at 9.13 ± 0.346 µM.
On to `CCOC(=O)c1c(C)nc(-c2cccc(C#N)c2)n1OCC` [LY-26b, ethyl 2-(3-cyanophenyl)-1-ethoxy-4-methyl-1H-imidazole-5-carboxylate], for which the IC50 is 16.5 ± 1.07 µM.
For the compound `CCOC(=O)c1c(C)nc(-c2cccc(C#N)c2)n1OC(C)C` [LY-26c, ethyl 2-(3-cyanophenyl)-1-isopropoxy-4-methyl-1H-imidazole-5-carboxylate], the IC50 was found to be 6.74 ± 0.326 µM.
Regarding `C=CCOn1c(-c2cccc(C#N)c2)nc(C)c1C(=O)OCC` [LY-26d, ethyl 1-(allyloxy)-2-(3-cyanophenyl)-4-methyl-1H-imidazole-5-carboxylate], the IC50 was determined as 5.856 ± 0.0165 µM.
Same read-out and setting: in the case of `CCOCCOn1c(-c2cccc(C#N)c2)nc(C)c1C(=O)OCC` [LY-26e, ethyl 2-(3-cyanophenyl)-1-(2-ethoxyethoxy)-4-methyl-1H-imidazole-5-carboxylate] it was 6.25 ± 0.21 µM.
Still for that read-out and setting: in the case of `CCOC(=O)c1c(C)nc(-c2cccc(C#N)c2)n1OCCCO` [LY-26f, ethyl 2-(3-cyanophenyl)-1-(3-hydroxypropoxy)-4-methyl-1H-imidazole-5-carboxylate] it was 11.4 ± 0.213 µM; in that of `CCOC(=O)COn1c(-c2cccc(C#N)c2)nc(C)c1C(=O)OCC` [LY-26g, ethyl 2-(3-cyanophenyl)-1-(2-ethoxy-2-oxoethoxy)-4-methyl-1H-imidazole-5-carboxylate], 6.8 ± 0.152 µM; in that of `CCOC(=O)c1c(C)nc(-c2cccc(C#N)c2)n1OCc1ccncc1` [LY-26j, ethyl 2-(3-cyanophenyl)-4-methyl-1-(pyridin-4-methoxy)-1H-imidazole-5-carboxylate], 6.196 ± 0.0526 µM.
Same read-out and setting: in the case of `CCOC(=O)c1c(C)nc(-c2cccc(C#N)c2)n1OCc1ccccc1` [LY-26k, ethyl 1-(benzyloxy)-2-(3-cyanophenyl)-4-methyl-1H-imidazole-5-carboxylate] it was 5.93 ± 0.265 µM; in that of `CCOC(=O)c1c(C)nc(-c2cccc(C#N)c2)n1OCc1ccccc1F` [LY-26l, ethyl 2-(3-cyanophenyl)-1-[(2-fluorobenzyl)oxy]-4-methyl-1H-imidazole-5-carboxylate], 5.88 ± 0.196 µM.
Regarding `CCOC(=O)c1c(C)nc(-c2cccc(C#N)c2)n1OCc1cccc(F)c1` [LY-26m, ethyl 2-(3-cyanophenyl)-1-[(3-fluorobenzyl)oxy]-4-methyl-1H-imidazole-5-carboxylate], the IC50 was 22.4 ± 1.36 µM.
On the same count and under the same terms, in the case of `CCOC(=O)c1c(C)nc(-c2cccc(C#N)c2)n1OCc1ccc(F)cc1` [LY-26n, ethyl 2-(3-cyanophenyl)-1-[(4-fluorobenzyl)oxy]-4-methyl-1H-imidazole-5-carboxylate] it was 5.88 ± 0.196 µM; in that of `CCOC(=O)c1c(C)nc(-c2cccc(C#N)c2)n1OCc1ccccc1Cl` [LY-26o, ethyl 1-[(2-chlorobenzyl)oxy]-2-(3-cyanophenyl)-4-methyl-1H-imidazole-5-carboxylate], 8.71 ± 0.242 µM; in that of `CCOC(=O)c1c(C)nc(-c2cccc(C#N)c2)n1OCc1cccc(Cl)c1` [LY-26p, ethyl 1-[(3-chlorobenzyl)oxy]-2-(3-cyanophenyl)-4-methyl-1H-imidazole-5-carboxylate], 19.4 ± 0.355 µM.
On to `CCOC(=O)c1c(C)nc(-c2cccc(C#N)c2)n1OCc1ccc(Cl)cc1` [LY-26q, ethyl 1-[(4-chlorobenzyl)oxy]-2-(3-cyanophenyl)-4-methyl-1H-imidazole-5-carboxylate], for which the IC50 came to 6.83 ± 0.265 µM.
The same measure, in the same setting: the same measure for `CCOC(=O)c1c(C)nc(-c2cccc(C#N)c2)n1OCc1ccc(Br)cc1` [LY-26r, ethyl 1-[(4-bromobenzyl)oxy]-2-(3-cyanophenyl)-4-methyl-1H-imidazole-5-carboxylate]: 24.6 ± 0.895 µM; for `CCOC(=O)c1c(C)nc(-c2cccc(C#N)c2)n1OCc1ccc(C)cc1` [LY-26s, ethyl 2-(3-cyanophenyl)-4-methyl-1-[(4-methylbenzyl)oxy]-1H-imidazole-5-carboxylate]: 6.31 ± 0.399 µM.
For the compound `CCOC(=O)c1c(C)nc(-c2cccc(C#N)c2)n1OCc1ccc(OC)cc1` [LY-26t, ethyl 2-(3-cyanophenyl)-1-[(4-methoxybenzyl)oxy]-4-methyl-1H-imidazole-5-carboxylate], the IC50 was 6.83 ± 0.0856 µM.
As to `CCOC(=O)c1c(C)nc(-c2cccc(C#N)c2)n1OCc1ccc(C(=O)OC)cc1` [LY-26u, ethyl 2-(3-cyanophenyl)-1-{[4-(methoxycarbonyl)benzyl]oxy}-4-methyl-1H-imidazole-5-carboxylate], the IC50 stood at 9.47 ± 0.856 µM.
On the same count and under the same terms, in the case of `CCOC(=O)c1c(C)nc(-c2cccc(C#N)c2)n1OCc1ccc([N+](=O)[O-])cc1` [LY-26v, ethyl 2-(3-cyanophenyl)-4-methyl-1-[(4-nitrobenzyl)oxy]-1H-imidazole-5-carboxylate] it was 8.75 ± 0.159 µM.
Still for that read-out and setting: in the case of `CCOC(=O)c1c(C)nc(-c2cccc(C#N)c2)n1OCc1ccccc1C#N` [LY-26w, ethyl 1-[(2-cyanobenzyl)oxy]-2-(3-cyanophenyl)-4-methyl-1H-imidazole-5-carboxylate] it was 9.38 ± 0.565 µM; in that of `COn1c(-c2cccc(C#N)c2)nc(C)c1C(=O)O` [LY-27a, 4-methyl-2-(3-cyanophenyl)-1-methoxy-1H-imidazole-5-carboxylic acid], 7.99 ± 0.217 µM.

Still in this experiment, the particulars now being: rabbit PRP, inducer ADP, absorbance 655 nm; read-out: IC50 (Mean ± SE), ADP-induced platelet aggregation.
For `CCOC(=O)c1c(C)nc(-c2ccc(OCC(C)C)c(C#N)c2)n1O` [LY-7a, ethyl 2-(3-cyano-4-isobutyloxy)phenyl-1-hydroxy-4-methyl-1H-imidazole-5-carboxylate], the IC50 came out at 16.8 ± 0.874 µM.

By inhibition is commonly meant the percentage by which the read-out fell short of the control. In general, IC50 refers to the concentration at which inhibition is half-maximal.

These data come from patent US20220064127A1, “PLATELET AGGREGATION INHIBITOR, PREPARATION AND USES THEREOF” (SHENYANG HINEWY PHARMACEUTICAL TECHNOLOGY CO., LTD., priority 2020, published 2022).
